These compounds were tested against T1, human Werner helicase (WRN-BV08, Uniprot Q14191, amino acids 517-1235 with L1074F point mutation) (Homo sapiens, UniProt Q14191, L1074F) (assay: WRN (BV08) ADP-Glo Assay). Conditions: 0.15 nM WRN, 5 μM ATP, 0.1 nM DNA duplex, 15 min preincubation, 60 min at 25° C., pH 7.5, 1% DMSO; read-out: ADP-Glo_hWRN_IC50.
T1 construct: Uniprot Q14191, amino acids 517-1235 with L1074F point mutation; TEV-cleavable 8×His (C, cleaved yes); made in house; host or cells: Sf9 insect cells (baculovirus)
T1 sequence (Q14191 with tags, fused parts or gaps L1074F limits assumed): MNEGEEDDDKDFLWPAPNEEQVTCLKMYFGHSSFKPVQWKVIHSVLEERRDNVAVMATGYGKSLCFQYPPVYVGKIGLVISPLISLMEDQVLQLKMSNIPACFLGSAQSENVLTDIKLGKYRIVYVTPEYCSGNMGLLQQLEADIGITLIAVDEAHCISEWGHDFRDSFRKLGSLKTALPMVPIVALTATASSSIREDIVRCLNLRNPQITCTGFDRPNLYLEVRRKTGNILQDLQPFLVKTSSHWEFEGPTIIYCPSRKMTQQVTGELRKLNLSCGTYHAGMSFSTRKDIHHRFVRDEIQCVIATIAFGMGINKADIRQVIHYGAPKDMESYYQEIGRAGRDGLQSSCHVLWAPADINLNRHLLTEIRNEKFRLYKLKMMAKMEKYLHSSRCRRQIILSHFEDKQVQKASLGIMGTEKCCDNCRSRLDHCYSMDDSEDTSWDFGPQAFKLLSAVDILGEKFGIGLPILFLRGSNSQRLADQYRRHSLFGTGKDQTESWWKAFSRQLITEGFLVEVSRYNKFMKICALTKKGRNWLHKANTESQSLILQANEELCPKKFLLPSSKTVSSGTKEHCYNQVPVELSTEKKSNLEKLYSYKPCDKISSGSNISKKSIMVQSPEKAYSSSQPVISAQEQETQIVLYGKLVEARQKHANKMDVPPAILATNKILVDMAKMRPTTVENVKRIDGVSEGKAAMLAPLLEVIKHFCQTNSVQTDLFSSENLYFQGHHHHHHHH
Format: biochemical
Procedure, shortened: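 Percent inhibition was normalised to DMSO (max) and 20 μM NSC-617145 (min) controls from ADP-Glo luminescence, and IC50 values came from a four-parameter fit. The reaction ran 60 min at 25 °C with 0.15 nM WRN, 5 μM ATP and 0.1 nM duplex DNA.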

Row | Compound | IC50 [µM]
1 | O=C(Cc1ccc(-n2cccc2)cc1)N(Cc1ccccc1F)C1C=CS(=O)(=O)C1 (centres unmarked) [I-257, N-(1,1-dioxo-2,3-dihydro-1lambda6-thiophen-3-yl)-N-[(2-fluorophenyl)methyl]-2-[4-(1H-pyrrol-1-yl)phenyl]acetamide] | 5 to 10
2 | CN(C)C(=O)c1ccc(CN(C(=O)Cc2ccc(-n3cccc3)cc2)C2C=CS(=O)(=O)C2)cc1 (centres unmarked) [I-259, 4-{[N-(1,1-dioxo-2,3-dihydro-1lambda6-thiophen-3-yl)-2-[4-(1H-pyrrol-1-yl)phenyl]acetamido]methyl}-N,N-dimethylbenzamide] | 5 to 10
3 | O=C(Cc1ccc(C(F)(F)F)cc1F)N(Cc1ccncc1)C1C=CS(=O)(=O)C1 (centres unmarked) [I-260, N-(1,1-dioxo-2,3-dihydro-1lambda6-thiophen-3-yl)-2-[2-fluoro-4-(trifluoromethyl)phenyl]-N-[(pyridin-4-yl)methyl]acetamide] | 5 to 10
4 | O=C(Cc1ccc(-c2cccc(F)c2F)cc1)N(Cc1ccncc1)C1C=CS(=O)(=O)C1 (centres unmarked) [I-261, 2-{2′,3′-difluoro-[1,1′-biphenyl]-4-yl}-N-(1,1-dioxo-2,3-dihydro-1lambda6-thiophen-3-yl)-N-[(pyridin-4-yl)methyl]acetamide] | 5 to 10
5 | O=C(Cc1ccc(CC(F)(F)F)cc1)N(Cc1ccncc1)C1C=CS(=O)(=O)C1 (centres unmarked) [I-263, N-(1,1-dioxo-2,3-dihydro-1lambda6-thiophen-3-yl)-N-[(pyridin-4-yl)methyl]-2-[4-(2,2,2-trifluoroethyl)phenyl]acetamide] | 5 to 10
6 | CC(C(=O)N(Cc1ccncc1)C1C=CS(=O)(=O)C1)c1ccc(-n2cccc2)cc1 (centres unmarked) [I-265, N-(1,1-dioxo-2,3-dihydro-1lambda6-thiophen-3-yl)-N-[(pyridin-4-yl)methyl]-2-[4-(1H-pyrrol-1-yl)phenyl]propanamide] | 5 to 10
7 | CC(C(=O)N(Cc1ccncc1)C1C=CS(=O)(=O)C1)c1ccc(-c2ccc(F)cc2)cc1 (centres unmarked) [I-266, N-(1,1-dioxo-2,3-dihydro-1lambda6-thiophen-3-yl)-2-{4′-fluoro-[1,1′-biphenyl]-4-yl}-N-[(pyridin-4-yl)methyl]propanamide] | 5 to 10
8 | NCCc1cccn1-c1ccc(CC(=O)N(Cc2ccccc2)C2C=CS(=O)(=O)C2)cc1 (centres unmarked) [I-268, 2-{4-[2-(2-aminoethyl)-1H-pyrrol-1-yl]phenyl}-N-benzyl-N-(1,1-dioxo-2,3-dihydro-1lambda6-thiophen-3-yl)acetamide] | 5 to 10
9 | O=C(Cc1ccc(-n2cccc2)cc1)N(Cc1ccccc1)C1C=C(Br)S(=O)(=O)C1 (centres unmarked) [I-269, 2-(4-(1H-pyrrol-1-yl)phenyl)-N-benzyl-N-(5-bromo-1,1-dioxido-2,3-dihydrothiophen-3-yl)acetamide] | 10 to 50
10 | O=C(Cc1ccc(-n2cccc2)cc1)N(Cc1cccc(F)c1)C1C=CS(=O)(=O)C1 (centres unmarked) [I-270, N-(1,1-dioxo-2,3-dihydro-1lambda6-thiophen-3-yl)-N-[(3-fluorophenyl)methyl]-2-[4-(1H-pyrrol-1-yl)phenyl]acetamide] | 5 to 10
11 | N#Cc1cccn1-c1ccc(CC(=O)N(Cc2ccncc2)C2C=CS(=O)(=O)C2)cc1 (centres unmarked) [I-272, 2-[4-(2-cyano-1H-pyrrol-1-yl)phenyl]-N-(1,1-dioxo-2,3-dihydro-1lambda6-thiophen-3-yl)-N-[(pyridin-4-yl)methyl]acetamide] | 5 to 10
12 | O=C(Cc1ccc(C2CC2(F)F)cc1)N(Cc1ccncc1)C1C=CS(=O)(=O)C1 (centres unmarked) [I-273, 2-[4-(2,2-difluorocyclopropyl)phenyl]-N-(1,1-dioxo-2,3-dihydro-1lambda6-thiophen-3-yl)-N-[(pyridin-4-yl)methyl]acetamide] | 5 to 10
13 | Cc1cnc(CN(C(=O)Cc2ccc(-n3cccc3)cc2)C2C=CS(=O)(=O)C2)s1 (centres unmarked) [I-274, N-(1,1-dioxo-2,3-dihydro-1lambda6-thiophen-3-yl)-N-[(5-methyl-1,3-thiazol-2-yl)methyl]-2-[4-(1H-pyrrol-1-yl)phenyl]acetamide] | 5 to 10
14 | O=C(O)c1ccc(CN(C(=O)Cc2ccc(-n3cccc3)cc2)C2C=CS(=O)(=O)C2)cc1 (centres unmarked) [I-275, 4-{[N-(1,1-dioxo-2,3-dihydro-1lambda6-thiophen-3-yl)-2-[4-(1H-pyrrol-1-yl)phenyl]acetamido]methyl}benzoic acid] | 10 to 50
15 | O=C(Cc1ccc(-n2cccc2)cc1)N(Cc1nccs1)C1C=CS(=O)(=O)C1 (centres unmarked) [I-276, N-(1,1-dioxo-2,3-dihydro-1lambda6-thiophen-3-yl)-2-[4-(1H-pyrrol-1-yl)phenyl]-N-[(1,3-thiazol-2-yl)methyl]acetamide] | 5 to 10
16 | Cc1ccc(-c2ccc(C(C(=O)N(C)C)C(=O)N(Cc3ccncc3)C3C=CS(=O)(=O)C3)cc2)cc1 (centres unmarked) [I-277, N-(1,1-dioxo-2,3-dihydro-1lambda6-thiophen-3-yl)-N′,N′-dimethyl-2-{4′-methyl-[1,1′-biphenyl]-4-yl}-N-[(pyridin-4-yl)methyl]propanediamide] | 5 to 10

Row | Compound | IC50 [µM]
17 | O=C(Cc1ccc(-n2cccc2)cc1)N(Cc1cc(F)ccc1F)C1C=CS(=O)(=O)C1 (centres unmarked) [I-278, N-[(2,5-difluorophenyl)methyl]-N-(1,1-dioxo-2,3-dihydro-1lambda6-thiophen-3-yl)-2-[4-(1H-pyrrol-1-yl)phenyl]acetamide] | 10 to 50
18 | O=C(Cc1ncc(-n2cccc2)s1)N(Cc1ccncc1)C1C=CS(=O)(=O)C1 (centres unmarked) [I-279, N-(1,1-dioxo-2,3-dihydro-1lambda6-thiophen-3-yl)-N-[(pyridin-4-yl)methyl]-2-[5-(1H-pyrrol-1-yl)-1,3-thiazol-2-yl]acetamide] | 5 to 10
19 | COc1ccc(CN(C(=O)Cc2ccc(-n3cccc3)cc2)C2C=CS(=O)(=O)C2)cc1OC (centres unmarked) [I-280, N-[(3,4-dimethoxyphenyl)methyl]-N-(1,1-dioxo-2,3-dihydro-1lambda6-thiophen-3-yl)-2-[4-(1H-pyrrol-1-yl)phenyl]acetamide] | 10 to 50
20 | CC(C)Cc1ccc(CC(=O)N(Cc2ccncc2)C2C=CS(=O)(=O)C2)cc1 (centres unmarked) [I-283, N-(1,1-dioxo-2,3-dihydro-1lambda6-thiophen-3-yl)-2-[4-(2-methylpropyl)phenyl]-N-[(pyridin-4-yl)methyl]acetamide] | 10 to 50
21 | CS(=O)(=O)Nc1ccc(CN(C(=O)Cc2ccc(-n3cccc3)cc2)C2C=CS(=O)(=O)C2)cc1 (centres unmarked) [I-284, N-(1,1-dioxo-2,3-dihydro-1lambda6-thiophen-3-yl)-N-[(4-methanesulfonamidophenyl)methyl]-2-[4-(1H-pyrrol-1-yl)phenyl]acetamide] | 10 to 50
22 | O=C(Cc1ccc(-n2cccc2)cc1)N(Cc1ccc(C2CC2)cn1)C1C=CS(=O)(=O)C1 (centres unmarked) [I-285, N-[(5-cyclopropylpyridin-2-yl)methyl]-N-(1,1-dioxo-2,3-dihydro-1lambda6-thiophen-3-yl)-2-[4-(1H-pyrrol-1-yl)phenyl]acetamide] | 5 to 10
23 | N#Cc1cccc(CN(C(=O)Cc2ccc(-n3cccc3)cc2)C2C=CS(=O)(=O)C2)c1 (centres unmarked) [I-286, N-[(3-cyanophenyl)methyl]-N-(1,1-dioxo-2,3-dihydro-1lambda6-thiophen-3-yl)-2-[4-(1H-pyrrol-1-yl)phenyl]acetamide] | 10 to 50
24 | O=C(Cc1ccc(C2CC2)cc1)N(Cc1ccncc1)C1C=CS(=O)(=O)C1 (centres unmarked) [I-287, 2-(4-cyclopropylphenyl)-N-(1,1-dioxo-2,3-dihydro-1lambda6-thiophen-3-yl)-N-[(pyridin-4-yl)methyl]acetamide] | 5 to 10
25 | Cc1cccc(-c2ccc(CC(=O)N(Cc3ccncc3)C3C=CS(=O)(=O)C3)cc2)c1 (centres unmarked) [I-288, N-(1,1-dioxo-2,3-dihydro-1lambda6-thiophen-3-yl)-2-{3′-methyl-[1,1′-biphenyl]-4-yl}-N-[(pyridin-4-yl)methyl]acetamide] | 10 to 50
26 | O=C(Cc1cc(-c2ccccc2)n[nH]1)N(Cc1ccncc1)C1C=CS(=O)(=O)C1 (centres unmarked) [I-289, N-(1,1-dioxo-2,3-dihydro-1lambda6-thiophen-3-yl)-2-(3-phenyl-1H-pyrazol-5-yl)-N-[(pyridin-4-yl)methyl]acetamide] | 10 to 50
27 | O=C(Cc1ccc(-n2cccc2)cc1)N(Cc1ccccc1)C1C=CS(=O)(=O)C1 (centres unmarked) [I-290, N-benzyl-N-(1,1-dioxo-2,3-dihydro-1lambda6-thiophen-3-yl)-2-[4-(1H-pyrrol-1-yl)phenyl]acetamide] | 5 to 10
28 | O=C(Cn1ncc(-c2ccccc2)n1)N(Cc1ccncc1)C1C=CS(=O)(=O)C1 (centres unmarked) [I-291, N-(1,1-dioxo-2,3-dihydro-1lambda6-thiophen-3-yl)-2-(4-phenyl-2H-1,2,3-triazol-2-yl)-N-[(pyridin-4-yl)methyl]acetamide] | 10 to 50
29 | O=C(Cc1ccc(-n2cccc2)cc1)N(Cc1cccc(O)c1)C1C=CS(=O)(=O)C1 (centres unmarked) [I-292, N-(1,1-dioxo-2,3-dihydro-1lambda6-thiophen-3-yl)-N-[(3-hydroxyphenyl)methyl]-2-[4-(1H-pyrrol-1-yl)phenyl]acetamide] | 10 to 50
30 | O=C(Cc1ccc(C(F)(F)F)cc1Br)N(Cc1ccncc1)C1C=CS(=O)(=O)C1 (centres unmarked) [I-293, 2-[2-bromo-4-(trifluoromethyl)phenyl]-N-(1,1-dioxo-2,3-dihydro-1lambda6-thiophen-3-yl)-N-[(pyridin-4-yl)methyl]acetamide] | 10 to 50
31 | O=C(Cc1ccc(-n2cccc2)cc1)N(Cc1c(F)cccc1F)C1C=CS(=O)(=O)C1 (centres unmarked) [I-294, N-[(2,6-difluorophenyl)methyl]-N-(1,1-dioxo-2,3-dihydro-1lambda6-thiophen-3-yl)-2-[4-(1H-pyrrol-1-yl)phenyl]acetamide] | 10 to 50
32 | O=C(Cc1ccc(-n2cccc2)cc1)N(Cc1ccc(C(F)(F)F)nc1)C1C=CS(=O)(=O)C1 (centres unmarked) [I-295, N-(1,1-dioxo-2,3-dihydro-1lambda6-thiophen-3-yl)-2-[4-(1H-pyrrol-1-yl)phenyl]-N-{[6-(trifluoromethyl)pyridin-3-yl]methyl}acetamide] | 10 to 50

Reference: US20260297070A1, “CYCLIC [COMPOUND LEFT OUT] WRN INHIBITORS” (Nimbus Wadjet, Inc., priority 2023, published 2026)
